Results published in patent publication US20120231069A1, “Targeted Nanocarrier Systems for Delivery of Actives Across Biological Membranes” (Access Pharmaceuticals, Inc., priority 2011, published 2012).

Tested on: Diabetic Rats
Assay: Blood glucose reduction in streptozotocin-diabetic rats after oral gavage
Assay type: in vivo
Details: diabetic female Wistar rats, oral gavage 0.5 mL of 20 IU/mL insulin
Procedure: Female Wistar rats (200 g) were housed at room temperature with 12 h light/dark cycle. All animals had ad libitum access to a standard chow diet and water except wherever indicated. The rats were allowed to acclimatize for a period of 7 days in the new environment before initiation of the experiment. After randomization into groups of 4, each rat was marked and followed individually throughout the study. All rats were fasted for 1 hour. Streptozotocin obtained from Sigma (98% HPLC) was administered by IV injection at a dose of 55-65 mg/kg in 0.1M citrate buffer (pH 4.5) followed by an additional 1 hour fast. Blood was collected daily from the tail and blood glucose levels were measured using an Accu-Chek® (Compact Plus-Roche) blood glucose monitor. When all animals in the group had achieved a blood glucose level of >250 mg/dl (5 days) the insulin metabolism phase was begun. All animals were fasted for 1 hour and a blood glucose measurement taken (T=0). Groups of rats were dosed by oral gavage with 0.5 mL of an aqueous preparation of insulin nanoparticles (containing 20 IU/mL of insulin) of example 9, or 0.5 mL of an aqueous solution of bovine insulin (20 IU/mL). The animals were then fasted for another hour and blood glucose levels were measured at 1, 4, 8 and 24 hours after dosing.

Substance: plain insulin formulation: aqueous solution of bovine insulin (20 IU/mL), oral comparator
- increase in blood glucose level (compared to T=0) (8 hours after dosing): 1%
- increase in blood glucose level (compared to T=0) (24 hours after dosing): 21%
